# Experiments:
# [1] = target: Alpha glucosidase (Homo sapiens, UniProt O43451+P10253+P14410+Q2M2H8); test: Inhibition of alpha-glucosidase (unknown origin) using p-nitro-phenyl-alpha-D-glucopyranoside as substrate preincubated for 5 mins with substrate followed by enzyme addition measure after 15 mins by spectrophotometric method; assay type: protein assay
# [2] = Antioxidant activity assessed as DPPH radical scavenging activity incubated for 30 mins under dark condition by spectrophotometric analysis; assay type: functional
# [3] = Antioxidant activity assessed as DPPH radical scavenging activity incubated for 30 mins under dark condition; assay type: functional
Compound,IC50 [1] [µM],IC50 [2] [µM],IC50 [3] [µM]
CC1(C)CCc2cc(CC3=C(c4ccc(O)cc4)C(O)OC3=O)ccc2O1 (configuration not stated),13.36,> 200,–
CC1(C)CCc2cc(CC3=C(c4ccc(O)cc4)[C@@](O)(C(=O)O)OC3=O)ccc2O1,7.63,> 200,–
COC(=O)[C@@]1(O)OC(=O)C(Cc2ccc3c(c2)CCC(C)(C)O3)=C1c1ccc(O)cc1,10.3,> 200,–
CC1(C)CCc2cc(CC3OC(=O)C(O)=C3c3ccc(O)cc3)ccc2O1 (configuration not stated),11.65,90,–
O=C1O/C(=C\c2ccc(O)cc2)C(O)=C1c1ccc(O)cc1 [ASPULVINONE E],> 400,106,–
CC(=O)N[C@@H](CS)C(=O)O [ACETYLCYSTEINE],–,85,–

# Further lines, results first:
IC50 [1] [µM],IC50 [2] [µM],IC50 [3] [µM],Compound
110.27,135,–,COC(=O)[C@]1(Cc2ccc3c(c2)C[C@@H](O)C(C)(C)O3)OC(=O)C(O)=C1c1ccc(O)cc1
8.65,> 200,–,CO[C@H]1OC(=O)C(Cc2ccc(O)c(CC=C(C)C)c2)=C1c1ccc(O)cc1
–,–,> 500,COC(=O)[C@]1(Cc2ccc3c(c2)C[C@H](O)C(C)(C)O3)OC(=O)C(OC)=C1c1ccc(O)cc1
14.18,38,–,COC(=O)[C@]1(Cc2ccc(O)c(CC=C(C)C)c2)OC(=O)C(O)=C1c1ccc(O)cc1
> 400,129,–,COC(=O)[C@]1(Cc2ccc3c(c2)C[C@H](C(C)(C)O)O3)OC(=O)C(O)=C1c1ccc(O)cc1 [BUTYROLACTONE IV]
9.98,> 200,–,CO[C@@H]1OC(=O)C(Cc2ccc(O)c(CC=C(C)C)c2)=C1c1ccc(O)cc1
85.13,86,–,COC(=O)[C@]1(Cc2ccc(O)cc2)OC(=O)C(O)=C1c1ccc(O)cc1
47.33,97,–,COC(=O)[C@]1(Cc2ccc3c(c2)CCC(C)(C)O3)OC(=O)C(O)=C1c1ccc(O)cc1
–,–,125,COC(=O)[C@]1(Cc2ccc(O)c(CC=C(C)C)c2)OC(=O)C(OC)=C1c1ccc(O)cc1

# — ChEMBL document CHEMBL4184116, “New butenolide derivatives from the marine sponge-derived fungus Aspergillus terreus” (Bioorg Med Chem Lett, 2018)
